Results taken from patent publication US10399971B2, “Compound for treating or preventing hyperuricemia or gout” (JIANGSU ATOM BIOSCIENCE AND PHARMACEUTICAL CO., LTD., priority 2015, dated 2019).

How the values were obtained:
[1] = in vivo; conditions: both, SD, rat, po
[2] = tested on: hyperuricemia mice; test: Uric acid excretion test in hyperuricemia mice; format: in vivo, Kunming mice; conditions: 15 mg/kg oral
Procedure: Species: Kingming mice (Clean Level); body weights: 25 to 30 g; ages: 4 to 5 weeks; sex: male. These mice were purchased from Shanghai SLAC Laboratory Animal Co., Ltd. Certificate No.: SCXK (HU) 2012-2002. Animal quality certificate number: 2015000522173.
A certain amount of adenine and yeast extract powder was weighted and a certain amount of double distilled water was added. The mixture was stirred at about 60° C. for 40 min to give a suspension, which the concentration of yeast extract is 0.6 g/mL and the concentration of adenine is 12 mg/mL.
A suspension of 20 mg/mL potassium oxonate was prepared by mixing a certain amount of potassium oxonate with 0.5% CMC-Na solution before use.
Male Kunming mice were randomly divided into four groups: blank control group, model group, compound 74 group, and benzbromarone group. Each group has six mice. All mice fasted 2 to 3 h before use. The model group, benzbromarone group, and compound 74 group were orally given a suspension of yeast extract and adenine prepared above to reach the final dosage of 10 g/kg (body weight) of yeast extract and 200 mg/kg (body weight) of adenine, respectively. The blank control group was only given same volume of normal saline orally. After 2.5 h, all mice in compound 74 group and benzbromarone group were given 10 mL/kg of suspension of compound 74 (1.5 mg/mL) and 10 mL/kg of suspension of benzbromarone (1.5 mg/mL), respectively. The blank control group and model group were orally given same volume of 0.5% CMC-Na solution. All animals were treated in the same way for seven days by using administration methods described above. On the last day, after administration of a suspension of yeast extract and adenine for the model group, compound 74 group, and benzbromarone group, all mice in these three groups were given 12.5 mL/kg of potassium oxonate (20 mg/mL) by i.p. The blank control was only given same volume of 0.5% CMC-Na solution by i.p. After 30 min, compound 74 and benzbromarone were administrated orally to the mice at same dosages as above in compound 74 group and benzbromarone group, respectively. The blank control group and model group were orally given same volume of 0.5% CMC-Na solution.
Collection of urine samples: All mice were placed in metabolic cages with normal diet individually after giving test compounds on the last day. 24 h urine was collected and the urine volume was measured. The urine was centrifugated at 3000 rpm for 20 min and the supernatant was collected.
Detection of the concentration of uric acid of mice urine samples: uric acid concentration in samples was detected by using uric acid assay kit (phosphotungstic acid method) followed the procedures described in the instruction.

[3] = tested on: human normal liver cell line WRL-68; test: Cytotoxicity test on human normal liver cell line WRL-68 (Alamar Blue); format: cell-based; conditions: WRL68, WRL-68 cells, 120 h incubation, cell viability, read-out: half inhibitory concentration (IC50) against WRL-68
Procedure: 2.1 The normal liver cell lines L-02 and WRL-68 were cultured with DMEM culture medium (containing 10% of fetal bovine serum, 100 U/mL of penicillin and 0.1 mg/mL of streptomycin) in an incubator under 5% CO2 at 37° C. until the cell density was about 90%, respectively.
2.3 Tested compounds and benzbromarone at different concentration gradients were prepared by using the DMEM culture medium and added into wells at 100 μL/well as compounds wells. The DMEM culture medium was added into wells at 100 μL/well without tested compound as negative control wells.
This 10× Alamar Blue solution was diluted into 1× Alamar Blue solution with phenol red free DMEM culture medium before use.
2.5 The cells were washed with PBS (0.1 M, pH=7.4) twice. The Alamar Blue solution was added into wells at 100 μL/well. 100 μL of Alamar Blue solution was added into wells without cells to serve as blank control wells. The 96-well plate was placed in an incubator under 5% CO2 at 37° C. for 3 h. Each concentration of compound was repeated three times during the test.
The fluorescence value of the cells containing compound is the F(test compound); the fluorescence value of the cells without compound as blank control is the F(blank control); the fluorescent value of the cells from negative control group is F(negative control). The average value and standard deviation of cell viability of three repeated concentrations was calculated by the following formula: […]
2.7 The half inhibitory concentration (IC50) of the compound for the cells L-02 and WRL-68 was obtained from the cell viability by Prism Graph software.

CCc1nc2ccccn2c1C(=O)c1cc(Br)c(O)c(C#N)c1 [Compound 74, 3-bromo-5-(2-ethylimidazo[1,2-a]pyridine-3-carbonyl)-2-hydroxybenzonitrile hydrogen chloride]
MTD at 14 days [1]: 5000 mg/kg
uric acid excretion increased compared with the model group ([2]; increase over model group): about 46.77%
Changes of uric acid excretion (compared with model group, %) ([2]; model group set to 100%): 146.77%
Uric acid in urine for 24 h, ±SD ([2]; seven days, 6 mice): 15.69 ± 1.53 mmol
IC50 [3]: > 100 µM
